# Paper PMC8504809 (Clinical and Translational Science, 2021)
# What was measured:
# [1] = system: suspension monkey hepatocytes; test: In vitro hepatic uptake clearance in suspension monkey hepatocytes; assay type: in vitro ADME, cynomolgus monkey; conditions: 37°C
# [2] = cited from earlier work
# [3] = Plasma pharmacokinetics after single IV cassette infusion; assay type: in vivo, cynomolgus monkey
# [4] = Liver exposure; assay type: in vivo, cynomolgus monkey; conditions: for liver concentration, RIF vs vehicle, at 1 h: 1 h post IV infusion; for increase of liver concentration with RIF at 6 h: average, RIF vs vehicle, N = 2 per time point
# [5] = Monkey PBPK model fitting of plasma and liver concentrations; set-up: species or system cynomolgus monkey; conditions: for reduction of active uptake clearance with rifampin inhibition (modeled): PBPK model, RIF vs vehicle; for Kp: plasma and liver
# [6] = Urinary excretion in monkeys; assay type: in vivo; conditions: in-house bile duct cannulation (BDC) monkey study (data not shown)
# [7] = clinical trial; cited from earlier work
# [8] = Pharmacokinetics of rifampin after oral administration; assay type: in vivo; conditions: male, cynomolgus monkey, plasma, 20 mg/kg
# [9] = monkeys; cited from earlier work
# [10] = humans; cited from earlier work
# [11] = system: OATP1B1; conditions: read-out: Ki against OATP1B1; cited from earlier work
# [12] = system: OAT2; conditions: read-out: IC50 for OAT2; cited from earlier work
# [13] = system: OATP1B3; conditions: read-out: Ki against OATP1B3; cited from earlier work
# [14] = RIF 20 mg/kg orally vs vehicle, monkeys
# [15] = PBPK fitted, rifampin, estimate (%CV)
# [16] = PBPK fitted, vehicle, estimate (%CV)
# [17] = cynomolgus monkey, intravenous, 0.5 mg/kg, Kp,rest, PBPK fitted, vehicle, estimate (%CV)
# [18] = cynomolgus monkey, intravenous, 0.5 mg/kg, Kp,scalar, PBPK fitted, vehicle, estimate (%CV)
# [19] = rifampin, fixed to the value estimated without rifampin
molecule,measurement,setting,value
Nc1c(CC(=O)O)cccc1C(=O)c1ccc(Br)cc1 [Bromfenac],hepatocyte uptake in the presence of 200 µM of rifamycin SV,[1],partially inhibit
same,"bromfenac glucuronide excreted in urine, % of the administered dose",[2]; healthy subjects,82.5%
same,decrease of systemic CL in the presence of RIF,[3]; [14],2.1 fold
same,increase of plasma exposure (AUClast) with RIF compared to the vehicle group,[3]; [14],2.1 fold
same,"liver concentrations, vehicle vs RIF pretreated groups, at 1, 2.5, and 6 h",[4],overlapped
same,"CL,u,int,passive",[5]; [15],11.2 (95.3%) ml/min/kg
same,"CLu,int,active",[5]; [15],820 (10.8%) ml/min/kg
same,"CLu,int,meta",[5]; [15],84.8 (3.8%) ml/min/kg
same,"CL,u,int,passive",[5]; [16],13.1 (96.2%) ml/min/kg
same,"CLu,int,active",[5]; [16],2300 (18.7%) ml/min/kg
same,"CLu,int,meta",[5]; [16],49.7 (16.9%) ml/min/kg
same,reduction of active uptake clearance with rifampin inhibition (modeled),[5],64%
same,Kp,[5]; [17],0.8
same,Kp,[5]; [18],0.5
CC1=C(CCC(=O)O)c2cc3nc(cc4[nH]c(cc5[nH]c(cc1n2)c(C)c5CCC(=O)O)c(CCC(=O)O)c4C)C(CCC(=O)O)=C3C [CP‐III],increase of plasma exposure (AUClast) with RIF compared to the vehicle group,[3]; [14],8.8 fold
same,"liver concentration, RIF vs vehicle, at 1 h",[4],minimally changed
same,increase of liver concentration with RIF at 6 h,[4],3.7 fold
CN(C)c1ccc2c(c1)c(=O)n(-c1ccc(C[C@H](NC(=O)c3c(Cl)cccc3Cl)C(=O)O)cc1)c(=O)n2C [Carotegrast],hepatocyte uptake in the presence of 200 µM of rifamycin SV,[1],greatly inhibited
same,"Urinary excretion, % of total dose",[6],7.5%
same,decrease of systemic CL in the presence of RIF,[3]; [14],about 10 fold
same,increase of Cmax with RIF,[3]; [14],4.8 fold
same,increase of plasma exposure (AUClast) with RIF compared to the vehicle group,[3]; [14],9.1 fold
same,volume of distribution (V),[3]; in the presence of RIF,0.05 L/kg
same,volume of distribution (V),[3]; vehicle group (without RIF),0.11 L/kg
same,"liver concentration, RIF vs vehicle, at 1 h",[4],comparable
same,"liver concentrations, RIF-treated vs vehicle group, at 2.5 h and 6 h",[4]; 2.5 h and 6 h,higher
same,"average Kp,liver (liver to plasma ratio)","[4]; without RIF (reduced by RIF treatment), Figure S3",~17
same,"CL,u,int,passive",[5]; [15],2.9 (32.4%) ml/min/kg
same,"CLu,int,active",[5]; [15],95.2 (4.4%) ml/min/kg
same,"CLu,int,bile",[5]; [15],11.7 (0.1%) ml/min/kg
same,"CL,u,int,passive",[5]; [16],4.1(11.8%) ml/min/kg
same,"CLu,int,active",[5]; [16],1154.1 (5.2%) ml/min/kg
same,"CLu,int,bile",[5]; [16],16.3 (0.022%) ml/min/kg
same,"Kp,rest",[5]; [16],0.85 (6.1%)
same,"Kp,scalar",[5]; [16],0.16 (29.4%)
same,"Kp,rest",[5]; [19],0.85 (fixed)
same,"Kp,scalar",[5]; [19],0.16 (fixed)
COc1ccccc1[C@H](Cn1c(=O)n(C(C)(C)C(=O)O)c(=O)c2c(C)c(-c3ncco3)sc21)OC1CCOCC1 [GS‐0976],pharmacodynamic (PD) effect with potent OATP inhibitor,[7],not altered
same,plasma concentration with potent OATP inhibitor,[7],increased significantly
"CO[C@H]1/C=C/O[C@@]2(C)Oc3c(C)c(O)c4c(O)c(c(/C=N/N5CCN(C)CC5)c(O)c4c3C2=O)NC(=O)/C(C)=C\C=C\[C@H](C)[C@H](O)[C@@H](C)[C@@H](O)[C@@H](C)[C@H](OC(C)=O)[C@@H]1C [RIF, rifampin]",concentration at 3.25 h,[8]; oral,20.8 µM
same,concentration at 6 h,[8]; oral,> 10 µM
same,Tmax,[8]; po,3.5 to 4.5 h
CC(C)c1nc(N(C)S(C)(=O)=O)nc(-c2ccc(F)cc2)c1/C=C/[C@@H](O)C[C@@H](O)CC(=O)O [Rosuvastatin],"Urinary excretion, % of the absorbed dose",[9],~ 20%
same,hepatocyte uptake in the presence of 200 µM of rifamycin SV,[1],greatly inhibited
same,fraction cleared through renal excretion,[2]; humans,less than 10%
same,decrease of systemic CL in the presence of RIF,[3]; [14],2.2 fold
same,increase of plasma exposure (AUClast) with RIF compared to the vehicle group,[3]; [14],2.3 fold
same,"liver concentrations, vehicle vs RIF pretreated groups, at 1, 2.5, and 6 h",[4],overlapped
same,"CL,u,int,passive",[5]; [15],0.5 (41%) ml/min/kg
same,"CLu,int,active",[5]; [15],81.7 (8.5%) ml/min/kg
same,"CLu,int,bile",[5]; [15],2.6 (19.7%) ml/min/kg
same,"CL,u,int,passive",[5]; [16],1.0 (22.5%) ml/min/kg
same,"CLu,int,active",[5]; [16],331.8 (13.8%) ml/min/kg
same,"CLu,int,bile",[5]; [16],2.8 (1.7%) ml/min/kg
same,reduction of active uptake clearance with rifampin inhibition (modeled),[5],75%
same,Kp,[5]; [17],2.7
same,Kp,[5]; [18],1.1
same,CL renal,"[5]; cynomolgus monkey, plasma, intravenous, 0.5 mg/kg",4.4 mL/min/kg
O=C(O)C[C@H](O)C[C@H](O)/C=C/c1c(C2CC2)nc2ccccc2c1-c1ccc(F)cc1 [pitavastatin],increase of systemic exposure when co-administered orally with rifampin,[10],5.7 fold
CO[C@H]1/C=C/O[C@@]2(C)Oc3c(C)c(O)c4c(O)c(cc(O)c4c3C2=O)NC(=O)/C(C)=C\C=C\[C@H](C)[C@H](O)[C@@H](C)[C@@H](O)[C@@H](C)[C@H](OC(C)=O)[C@@H]1C [rifamycin SV],Ki,[11],2000 nM
same,IC50,[12],~200000 nM
same,Ki,[13],3000 nM
coproporphyrin I [CP‐I],increase of plasma exposure (AUClast) with RIF compared to the vehicle group,[3]; [14],5.4 fold
same,"liver concentration, RIF vs vehicle, at 1 h",[4],minimally changed
same,increase of liver concentration with RIF at 6 h,[4],3.2 fold
